Results reported in the NIST ThermoML archive (doi:10.1016/j.jct.2015.01.001).
Values joined by “and” are separate entries in the source; they are usually repeats but may differ in a detail not shown here. Equal entries are not always repeated.

Tests used:
[1] = xn = mol fraction of the nth substance listed; conditions: Liquid; for viscosity: Falling or rolling sphere viscometry; for mass density: Vibrating tube method
[2] = Liquid; for viscosity: Falling or rolling sphere viscometry; for mass density: Vibrating tube method; for vapor or sublimation pressure: Closed cell (Static) method

CO [methanol] + O=C=O
[1], x2 = 0
Conditions	mass density [kg/m3]	viscosity [mPa·s]
298.15 K, 17 kPa	786.7	0.544
303.15 K, 21.9 kPa	782	0.512
308.15 K, 27.9 kPa	777.3	0.486
313.15 K, 35.6 kPa	772.5	0.46

O=S1(=O)CCCC1 [sulfolane]
[2]
Conditions	mass density [kg/m3]	viscosity
303.15 K	1262	10.3 mPa·s and 10.2 mPa·s
313.15 K	1253	8.01 mPa·s
323.15 K	1244	6.32 mPa·s
333.15 K	1235	5.16 mPa·s
343.15 K	1226	4.22 mPa·s
353.15 K	1218	3.5 mPa·s
363.15 K	1209	2.92 mPa·s

O=C=O [carbon dioxide] + CO
[1]
Conditions	mass density [kg/m3]	viscosity [mPa·s]
298.15 K, 467.6 kPa, x1 = 0.037	792.7	0.523
298.15 K, 1827.6 kPa, x1 = 0.155	811.4	0.45
298.15 K, 2059.2 kPa, x1 = 0.176	814.6	0.436
298.15 K, 2411.7 kPa, x1 = 0.207	819.5	0.418
298.15 K, 2609.8 kPa, x1 = 0.225	822.2	0.407
298.15 K, 3070.8 kPa, x1 = 0.268	828.6	0.383
303.15 K, 514.4 kPa, x1 = 0.034	787	0.497
303.15 K, 1357.8 kPa, x1 = 0.099	796.3	0.459
303.15 K, 2202.1 kPa, x1 = 0.164	805.7	0.421
303.15 K, 2582.4 kPa, x1 = 0.194	809.9	0.403
303.15 K, 2803.7 kPa, x1 = 0.212	812.4	0.392
303.15 K, 3272.7 kPa, x1 = 0.249	817.7	0.37
308.15 K, 543.8 kPa, x1 = 0.032	783.2	0.467
308.15 K, 1454.6 kPa, x1 = 0.094	791.6	0.434
308.15 K, 2129.6 kPa, x1 = 0.14	797.9	0.408
308.15 K, 2391.6 kPa, x1 = 0.158	800.3	0.398
308.15 K, 2760.3 kPa, x1 = 0.184	803.7	0.385
308.15 K, 3001.7 kPa, x1 = 0.201	806	0.375
308.15 K, 3529.4 kPa, x1 = 0.238	810.9	0.356
313.15 K, 629.5 kPa, x1 = 0.031	777.5	0.443
313.15 K, 1587.2 kPa, x1 = 0.091	787.1	0.41
313.15 K, 2265.6 kPa, x1 = 0.133	793.6	0.39
313.15 K, 2523.6 kPa, x1 = 0.149	796	0.378
313.15 K, 2943.3 kPa, x1 = 0.175	800.1	0.368
313.15 K, 3205.9 kPa, x1 = 0.191	802.6	0.356
313.15 K, 3774.9 kPa, x1 = 0.227	808	0.337

CO [methanol]
[2]
Conditions	mass density [kg/m3]	vapor or sublimation pressure [kPa]	viscosity [mPa·s]
298.15 K	786.7	17	0.544
303.15 K	782	21.9	0.512
308.15 K	777.3	27.9	0.486
313.15 K	772.5	35.6	0.46
